Article PMC13503280, “A pharmacological modality to sequester homomeric proteins” (Nature Chemical Biology, 2026)

Experiments:
Type in all cases: cell-based
HEK 293 cells = assay: Viability measurements, HEK 293 cells; details: HEK 293, 72 h
Experimental: (§1) Cells were seeded in a transparent-bottom, black 96-well plate, at 15,000 cells per well in sixfold replications. in 90 µl of medium and left to adhere for at least 4 h. The cells were then treated with the respective compound by adding 10 µl of medium–-compound mixture for a final volume of 100 µl in each well. Cell-Titer blue reagent was used to measure viability according to the manufacturer’s instructions. Plate reader measurements were performed on a Tecan Spark Control 10 M fluorescence system.

Keap1 [1] = molecular target: T1, Keap1 (Homo sapiens, UniProt Q14145); assay: Global proteomics of soluble lysate of U2OS cells; details: EL133 250 nM, 20 h, RIPA lysis, relative to control
Experimental: Cells were incubated with DMSO at 0.1% or with compound for 20 h unless indicated differently, in quadruplicate. […] Samples were then reduced using DTT, followed by reaction with iodoacetamide. The labeled proteins were then precipitated on a dispersion of glass beads, followed by overnight trypsin digestion and purification of peptides. Samples were analyzed using an EASY-nLC 1200 nano-flow ultrahigh-performance LC system, equipped with a PepMap RSLC C18 column (particle size: 2 µm, pore size: 100 Å, diameter: 75 µm, length: 50 cm), mounted using an EASY-Spray source onto an Exploris 240 MS instrument. LC–MS-grade solvents were used for all chromatographic steps at 300 nl min^−1. The mobile phase consisted of solvent A (H2O + 0.1% formic acid) and solvent B (80% acetonitrile + 0.1% formic acid). Peptides were eluted from the column into the MS instrument using the following gradient: 1–40% B in 160 min, 40–100% B in 5 min, maintained at 100% for 20 min, 100–1% in 10 min and finally 1% for 5 min. […] Initially, data were acquired in data-independent acquisition mode. […] Four samples were analyzed per condition.
Data analysis was performed using Fragpipe[87],[88] […] Label-free quantification was performed using DIANN. After analysis, the quantified protein file was analyzed using Perseus[89]. […] Differences and P values were calculated using a double-sided Student’s t-test. […]

OCI-AML2 cells = assay: Viability measurements, OCI-AML2 cells
Experimental: as §1

Keap1 [2] = molecular target: T1, Keap1; assay: WB of Keap1 in OCI-AML2 cells (soluble/insoluble phase); design: endogenous in cells; host or cells: OCI-AML2
Experimental: Cells were incubated with DMSO at 0.1% or with compound in concentrations ranging 10–20,000 nM for 20 h unless indicated differently. Following incubation, lysis was performed in RIPA buffer and the samples were measured for total protein quantification by BCA assay (Thermo Fisher Scientific, 23225). Then, 20–40 μg of each sample was loaded and run on an SDS–PAGE gel, before transferring onto a nitrocellulose membrane using a Trans-Blot Turbo system (Bio-Rad) and blocking using a 5% BSA in TBS-T (w/v) solution for 1 h at room temperature. Incubation with primary antibodies (mouse anti-BCL-6 (sc-7388, Santa Cruz, 1:500; overnight at 4 °C), mouse anti-Keap1 (sc-365626, Santa Cruz, 1:500; overnight at 4 °C), rabbit anti-LDHA (4H18L6, Thermo Fisher, 1:1,000; overnight at 4 °C), mouse anti-NQO2 (sc-271665, Santa Cruz, 1:500; overnight at 4 °C), rabbit anti-c-Myc (5605, Cell Signaling, 1:1,000; overnight at 4 °C) and mouse anti-β-actin (3700, Cell Signaling, 1:1,000; 1 h at room temperature) was performed and then the membranes were washed and incubated with a horseradish-peroxidase-conjugated secondary antibody (mouse 7076/rabbit 7074, Cell Signaling) at room temperature for 1 h. Imaging of the chemiluminescence signal was performed using a ChemiDoc XRS+ instrument (Bio-Rad). Primary band quantifications were normalized against β-actin bands.

T1 sequence (Q14145 whole entry): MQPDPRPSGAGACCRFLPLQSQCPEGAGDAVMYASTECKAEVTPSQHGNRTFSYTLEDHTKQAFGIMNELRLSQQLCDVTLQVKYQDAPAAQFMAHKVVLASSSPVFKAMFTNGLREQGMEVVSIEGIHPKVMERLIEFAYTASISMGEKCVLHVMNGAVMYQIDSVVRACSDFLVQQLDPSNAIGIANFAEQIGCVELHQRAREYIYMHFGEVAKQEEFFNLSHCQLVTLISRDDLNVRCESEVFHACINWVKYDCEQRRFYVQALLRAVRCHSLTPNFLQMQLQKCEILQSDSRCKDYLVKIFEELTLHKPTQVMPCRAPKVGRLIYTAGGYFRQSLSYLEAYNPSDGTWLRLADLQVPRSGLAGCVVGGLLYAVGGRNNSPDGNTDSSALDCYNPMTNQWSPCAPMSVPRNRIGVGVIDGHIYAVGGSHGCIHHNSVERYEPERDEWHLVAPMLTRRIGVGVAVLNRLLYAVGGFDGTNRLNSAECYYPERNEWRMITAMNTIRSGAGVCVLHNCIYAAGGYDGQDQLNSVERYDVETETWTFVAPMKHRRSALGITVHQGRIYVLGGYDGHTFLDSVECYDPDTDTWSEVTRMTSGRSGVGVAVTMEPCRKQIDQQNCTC

Keap1 level in soluble fraction (quantitative proteomics) (Keap1 [1]): significantly downregulated
IC50 (OCI-AML2 cells; Homo sapiens, OCI-AML2, 72 h): 265 nM
difference in viability IC50 over BDX (OCI-AML2 cells; OCI-AML2): fourfold
rescue of Keap1 downregulation by MLN-4924 or bortezomib pretreatment (Keap1 [2]; OCI-AML2, 1 h pretreatment, then compound 7 h): did not rescue Keap1 downregulation
concentration at which Keap1 accumulates in the insoluble phase (as low as) (Keap1 [2]; OCI-AML2 cells): 500 nM
EC50 (Keap1 [2]; OCI-AML2 cells, 20 h treatment, read-out: EC50 (Keap1 downregulation, WB)): 102 nM
SMILES: CC1(C)CCC2(C(=O)NCCOCCOCCNC(=O)C34CCC(C)(C)CC3C3C(=O)C=C5C6(C)C=C(C#N)C(=O)C(C)(C)C6CCC5(C)C3(C)CC4)CCC3(C)C(C(=O)C=C4C5(C)C=C(C#N)C(=O)C(C)(C)C5CCC43C)C2C1 (centres unmarked) [EL133]
additional viability loss compared with BDX (HEK 293 cells): no additional viability loss
Keap1 in insoluble phase after washout (WB) (Keap1 [2]; OCI-AML2, 500 nM EL133 or 2.5 µM EL256 for 20 h, then washout): remained accumulated in the insoluble phase for up to the 96 h
